Experimental data as given in ChEMBL document CHEMBL5608141, “Identification of compartment-specific drug sensitivities in CRC organoid-stroma co-cultures” (2024).
Where “and” joins values, the source holds several entries; their conditions need not be identical. Equal values may be shown once.

Assays:
Type in all cases: functional, Homo sapiens
Parameters in all cases: dose or concentration left out as unconfirmed
[1] = system: Colon cancer organoid; test: Identification of compartment-specific drug sensitivities in O06 CRC organoid-stroma F06 CAF co-cultures. Organoid is transduced with Lucferase2-P2A-EGFP lentivirus, fibroblast with Renilla-dsRed lentivirus. Dual-Glo Luciferase assay is used to report viability data.
[2] = system: Colon cancer organoid; test: Identification of compartment-specific drug sensitivities in O14 CRC organoid-stroma F14 CAF co-cultures. Organoid is transduced with Lucferase2-P2A-EGFP lentivirus, fibroblast with Renilla-dsRed lentivirus. Dual-Glo Luciferase assay is used to report viability data.
[3] = system: Colon cancer organoid; test: Identification of compartment-specific drug sensitivities in O20 CRC organoid-stroma F20 CAF co-cultures. Organoid is transduced with Lucferase2-P2A-EGFP lentivirus, fibroblast with Renilla-dsRed lentivirus. Dual-Glo Luciferase assay is used to report viability data.
[4] = Transduced with Lucferase2-P2A-EGFP lentivirus
[5] = Transduced with Renilla-dsRed lentivirus

Structure (SMILES) | Cell Viability [1, 4] | Cell Viability [1, 5] | Cell Viability [2, 4] | Cell Viability [2, 5] | Cell Viability [3, 4] | Cell Viability [3, 5]
O=C(c1ccc(C(=O)N2CCC(N3CCCC3)CC2)c(Nc2ccccc2)c1)N1CCC(N2CCCC2)CC1 | 108.091% | 96.0319% | 131.975% | 97.2232% | 130.421% | 96.2949%
CC(C)N(CCCNC(=O)Nc1ccc(C(C)(C)C)cc1)C[C@H]1O[C@@H](n2cc(Br)c3c(N)ncnc32)[C@H](O)[C@@H]1O | 62.4885% | 97.8527% | 74.0278% | 90.8718% | 59.6009% | 110.156%
COc1cc2c(cc1OCCCN1CCCC1)N=C(N)C21CCC1 | 84.9948% | 83.704% | 87.6121% | 63.8775% | 76.3645% | 100.254%
CCOC(=O)CCNc1cc(N2CCc3ccccc3CC2)nc(-c2ccccn2)n1 | 103.039% | 116.98% | 102.142% | 98.2806% | 101.525% | 127.032%
O=C(O)CNC(=O)c1c(O)c2ccccc2n(Cc2ccccc2)c1=O | 145.736% | 124.036% | 107.659% | 95.196% | 96.6263% | 149.859%
Cc1sc2c(c1C)C(c1ccc(Cl)cc1)=N[C@H](CC(=O)OC(C)(C)C)c1nnc(C)n1-2 | 107.283% | 109.974% | 146.34% | 95.1093% | 99.6993% | 113.657%
CCCc1cc(C)[nH]c(=O)c1CNC(=O)c1cc(-c2ccc(N3CCN(C(C)C)CC3)nc2)cc2c1cnn2C(C)C | 81.1391% | 118.175% | 84.6561% | 97.5786% | 59.2451% | 157.842%
COc1ccc(CCc2nc3cc(-c4c(C)noc4C)ccc3n2C[C@H](C)N2CCOCC2)cc1Cl | 78.634% | 97.126% | 147.618% | 121.055% | 96.1019% | 133.846%
CCCOc1ccn2c(C(C)=O)cc(-c3ccccc3S(C)(=O)=O)c2c1 | 121.922% | 129.269% | 92.2028% | 99.133% | 150.252% | 117.742%
COc1cc(C#N)ccc1S(=O)(=O)Nc1ccc2c(c1)cc(C)c(=O)n2C | 94.9001% | 111.598% | 105.069% | 87.2253% | 96.9289% | 124.149%
O=C(/C=C/N1C[C@H]2C[C@@H]1CN2c1ccccn1)c1ccccc1O | 122.112% | 121.159% | 104.919% | 81.7789% | 99.3831% | 109.392%
Cc1cc(=O)n(C)c2cc(N3C(=O)CC[C@H](NS(=O)(=O)CC(C)C)[C@H]3c3ccc(Cl)cc3)ccc12 | 117.914% | 167.751% | 95.8197% | 121.413% | 108.181% | 166.434%
CCCS(=O)(=O)c1nc(NC2CC2)cc(-c2ccc3c(ccn3C3CC(C)(C)NC(C)(C)C3)c2)n1 | 80.022% and 93.4216% | 88.9327% and 142.491% | 124.727% and 116.36% | 92.6394% and 115.077% | 91.7549% and 133.424% | 94.2313% and 119.463%
CCN(C(=O)CO)[C@H]1CN(/C(=N\C#N)Nc2cccc(OC(F)F)c2)N=C1c1ccc(Cl)c(Cl)c1 | 100.328% | 102.729% | 106.236% | 108.187% | 98.7267% | 141.776%
CC(=O)c1cc(-c2cc(C(=O)NC3CC3)ccc2C)c2ncccn12 | 95.4153% | 118.795% | 131.291% | 101.161% | 68.6867% | 121.421%
Nc1ncnc2c1ccn2[C@@H]1O[C@H]([C@H](O)c2ccccc2)[C@@H](O)[C@H]1O | 22.7938% | 108.338% | 25.5953% | 72.0424% | 28.7794% | 179.519%

Structure (SMILES) | Cell Viability [1, 4] | Cell Viability [1, 5] | Cell Viability [2, 4] | Cell Viability [2, 5] | Cell Viability [3, 4] | Cell Viability [3, 5]
Cl.Cl.c1ccc([C@@H]2C[C@H]2NC2CCNCC2)cc1 | 78.4875% | 97.0217% | 85.8382% | 107.738% | 42.8532% | 97.3617%
CCCCNNC(=O)c1ccc(Br)cc1 | 113.204% | 110.004% | 96.2748% | 91.9269% | 131.97% | 114.511%
COc1cc(Nc2ccnc3ccc(Br)cc23)cc(OC)c1OC | 11.1317% | 122.349% | 56.2839% | 83.5621% | 3.207% | 235.19%
CN(C)CCCOc1ccc(-c2cc(NCCCn3cccn3)nc(S(C)(=O)=O)n2)cc1 | 126.468% | 129.443% | 139.487% | 89.5427% | 144.942% | 126.832%
COc1cc(N(C)c2ccnc3ccc(C(F)(F)F)cc23)cc(OC)c1OC | 62.3452% | 117.147% | 95.9474% | 95.4836% | 76.7382% | 110.267%
O=C(NC[C@H](O)CN1CCc2ccccc2C1)c1ccnc(NC2CCC2)c1 | 33.1368% | 110.399% | 42.6769% | 91.2933% | 43.0801% | 143.569%
CNCCN1CCC(c2cc(CN(C)C(=O)c3cccc(Oc4ccccc4)c3)ccn2)CC1 | 83.6812% | 129.007% | 146.315% | 111.036% | 67.5507% | 133.473%
COc1c(C)cc(NC(=O)c2nn(Cc3ccc(F)cc3)c3c2CN(C(=O)c2ccc[nH]2)C[C@]3(C)C(N)=O)cc1C | 66.5012% | 112.674% | 104.772% | 92.7757% | 107.405% | 95.1299%
Cc1nnc2c3ccccc3c(N[C@@H](C)[C@H](c3ccccc3)N(C)C)nn12 | 95.7989% | 115.114% | 110.519% | 106.748% | 82.8594% | 127.368%
C[C@H]1CC(=O)Nc2cc(C(=O)NCCC3CC3)ccc2N1C(=O)N1CC2CC2C1 (some centres not stated) | 115.835% | 132.849% | 144.576% | 93.1136% | 106.68% | 112.87%
CCCCN(Cc1ccccc1)C(=O)c1ccc(S(=O)(=O)Nc2ccccc2)cc1 | 68.2046% | 126.816% | 91.6685% | 100.658% | 74.981% | 116.955%
COc1cc(OC)cc(-c2noc(N3CCN(C)C4(CCN(c5ccnc(C)c5)CC4)C3)n2)c1 | 121.179% | 136.172% | 96.7615% | 90.1785% | 136.59% | 146.282%
CNc1cc(Oc2cc(C(=O)Nc3cc(N4CCN(C)CC4)cc(C(F)(F)F)c3)ccc2C)ncn1 | 72.9479% | 75.3319% | 198.58% | 101.862% | 163.613% | 75.5289%
CC1=C(C)C(=O)C(C(C)(C)CC(=O)N(CCCCSC[C@H]2O[C@@H](n3cnc4c(N)ncnc43)[C@@H]3OC(C)(C)O[C@@H]32)Cc2cccc(-c3ccc(Cl)cc3)c2)=C(C)C1=O | 82.0361% | 129.013% | 94.9972% | 94.497% | 98.0775% | 117.278%
COc1cc(C(=O)N2CC[C@@H](O)[C@@H](N)C2)cc2nc(-c3cc4ccccc4n3CC3CC3)n(C)c12.Cl | 124.227% | 121.721% | 110.648% | 103.392% | 99.5485% | 114.018%
CC1=C(C)C(=O)C(C(C)(C)CC(=O)N(CCCCSC[C@H]2O[C@@H](n3cnc4c(N)ncnc43)[C@H](O)[C@@H]2O)Cc2cccc(-c3ccc(Cl)cc3)c2)=C(C)C1=O | 117.447% | 138.552% | 65.9332% | 97.7144% | 100.369% | 114.813%
